# Source: PMC13316043, “Structural basis of NSD2 degradation via targeted recruitment of SCF-FBXO22” (Nature Communications, 2026)
# Molecular target: T1, NSD2 (U2OS NSD2-HiBiT cells) (Homo sapiens, UniProt O96028)
# T1 construct: RNPs were introduced into U2OS cells by electroporation; endogenous in cells; host or cells: U2OS NSD2-HiBiT clone P112 (CRISPR knock-in)
# T1 sequence (O96028 1-1365): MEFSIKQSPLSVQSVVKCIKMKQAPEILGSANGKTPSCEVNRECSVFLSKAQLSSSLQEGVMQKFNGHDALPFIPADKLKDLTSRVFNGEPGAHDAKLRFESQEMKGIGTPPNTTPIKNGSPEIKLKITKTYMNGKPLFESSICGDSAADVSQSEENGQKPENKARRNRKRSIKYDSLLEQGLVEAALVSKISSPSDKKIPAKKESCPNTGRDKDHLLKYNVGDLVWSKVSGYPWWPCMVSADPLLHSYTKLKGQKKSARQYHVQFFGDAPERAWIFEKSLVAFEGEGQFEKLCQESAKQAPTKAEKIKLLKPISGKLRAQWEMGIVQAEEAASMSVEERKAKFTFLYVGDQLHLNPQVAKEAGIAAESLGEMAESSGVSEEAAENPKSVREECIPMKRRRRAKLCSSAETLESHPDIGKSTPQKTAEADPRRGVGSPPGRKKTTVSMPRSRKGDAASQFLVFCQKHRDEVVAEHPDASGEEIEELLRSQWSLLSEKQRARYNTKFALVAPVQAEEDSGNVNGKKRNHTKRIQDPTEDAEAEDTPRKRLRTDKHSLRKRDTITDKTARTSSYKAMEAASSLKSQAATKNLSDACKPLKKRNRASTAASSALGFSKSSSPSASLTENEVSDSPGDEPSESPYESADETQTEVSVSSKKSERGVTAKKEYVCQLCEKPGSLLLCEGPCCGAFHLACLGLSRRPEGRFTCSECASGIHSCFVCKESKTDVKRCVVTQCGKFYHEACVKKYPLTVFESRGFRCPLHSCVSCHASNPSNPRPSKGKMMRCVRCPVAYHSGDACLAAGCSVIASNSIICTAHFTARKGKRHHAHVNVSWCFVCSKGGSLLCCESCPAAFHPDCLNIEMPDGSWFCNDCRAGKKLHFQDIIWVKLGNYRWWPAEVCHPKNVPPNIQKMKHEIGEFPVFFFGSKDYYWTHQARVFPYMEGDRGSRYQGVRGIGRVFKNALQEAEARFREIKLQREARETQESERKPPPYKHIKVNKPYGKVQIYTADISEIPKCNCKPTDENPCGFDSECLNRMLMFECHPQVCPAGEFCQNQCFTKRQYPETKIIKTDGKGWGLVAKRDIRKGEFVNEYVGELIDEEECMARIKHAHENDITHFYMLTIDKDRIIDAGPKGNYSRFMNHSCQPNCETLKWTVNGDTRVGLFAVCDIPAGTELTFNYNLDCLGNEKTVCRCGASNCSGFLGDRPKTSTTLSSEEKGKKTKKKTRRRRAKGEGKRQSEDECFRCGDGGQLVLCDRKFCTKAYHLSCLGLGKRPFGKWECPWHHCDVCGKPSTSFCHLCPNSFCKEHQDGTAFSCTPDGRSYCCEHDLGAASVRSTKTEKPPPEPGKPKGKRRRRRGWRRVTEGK
# Assay: NSD2 HiBiT degradation assay
# Type: cell-based
# Conditions: for NSD2 Remaining (%) / reduction of NSD2 levels: U2OS NSD2-HiBit cells, 1 µM, 6 h; for DC50: dose-response, read-out: DC50 (concentration at which 50% of NSD2 is degraded)
# From the text: The NSD2 genomic sequence was obtained from the UCSC genome browser and used to design sgRNAs to introduce HiBiT tags at either the 5’ or 3’ ends of the gene. sgRNA were assembled into RNPs using TrueCut Cas9 Protein v2 (Invitrogen, Cat#A36497), an sgRNA crRNA:tracrRNA duplex (below; IDT) and ssODN (below; IDT). RNPs were introduced into U2OS cells by electroporation using a Neon XT electroporation system (1750 V, 10 ms, 3 pulses) in R-buffer, using Thermo Fisher Neon transfection kit (Cat# MPK1025K) and according to the manufacturer's protocol. After plating for recovery for four days, single cell clones limited dilution cloning. Single cell clones that grew out were identified as containing integrated HiBiT tags on NSD2 by performing HiBiT assays using HiBiT lytic assay (Promega: N3040) and read on a plate reader. Clones were further confirmed by PCR analysis.
# To test compounds for NSD2 degradation, a compound plate was prepared by diluting compounds in DMSO into cell media in a 384-deep-well plate (Revvity). Then, 6 µL of the diluted compounds were transferred into the well of the 384-well assay plate (Corning). 24 µL of the NSD2 HiBiT U2OS P112 cells or parental U2OS cells (3000 cells/well) were added to each well to make a final volume of 30 µL with a 0.1% final DMSO concentration. For multiple time points, multiple assay plates were made and incubated in the incubator at 37 °C in 5% CO2 for 3/6/12/24/48 hrs. 10 min before the reading, the assay plate and the Nano-Glo HiBiT Lytic Detection System (Promega) were brought to room temperature. The HiBiT lytic reagent master mix was prepared according to the product instructions and added to the assay plate. The plate was then incubated on an orbital shaker for 5 min at room temperature, equilibrated for 10 min, and then read using the GloMax luminometer (Promega) for luminescence detection. Compound treatment was normalized to the DMSO control with the background subtraction using the parental U2OS cell line as the background control, plated alongside the HiBiT U2OS P112 cells. The data and graphs were then analyzed and generated using GraphPad Prism (v 10.4.1). DC50 and Dmax were calculated by fitting the data to a non-linear regression curve.
fold more potent (DC50) than UNC8732 (U2OS NSD2 HiBit cells),fold more potent (DC50) than UNC10415667 (U2OS NSD2 HiBit cells),Structure (SMILES),NSD2 Remaining (%),reduction of NSD2 levels,DC50 (U2OS NSD2 HiBit cells) [nM],fold more potent (DC50) than UNC8732 and UNC10088 (U2OS NSD2 HiBit cells)
~ 10 fold,~ 4 fold,Cc1cc(C=O)ccc1C(=O)N1CCc2cc(NC(=O)c3ccc(CN(C(=O)c4ccc5c(c4)OCC(=O)N5)C4CC4)cc3)ccc2C1 [UNC12149],7.4,greater than 90%,120,
,,O=Cc1ccc(C(=O)N2CCc3cc(NC(=O)c4ccc(CN(C(=O)c5ccc6c(c5)OCC(=O)N6)C5CC5)cc4)ccc3C2)cc1 [UNC10415667],20,about 75%,460,about 2 fold
